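Results reflect a 48-hour exposure of cells in 96-well plates to compound at five concentrations. Abbreviation: GI50, concentration required for 50% inhibition of growth. Definition used: TGI = concentration required for complete inhibition of growth.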 Bounds are passed on as bounds.

Test systems include MDA-MB-435; K-562 leukemia; OVCAR-3 ovarian; U251 CNS; COLO 205 colon; A498 renal; SW-620 colon; MCF7 breast; A549 NSCLC; BT-549 breast.
Holding throughout (experiment): NCI anticancer screen, dose series, 48 h

With `COc1ccc(-n2cnc3c(NC(CCSC)C(=O)O)ncnc32)cc1` (stereo not given), the TGI in the assay on MDA-MB-435, in the assay with K-562 leukemia, in the assay on OVCAR-3 ovarian, in the assay with U251 CNS, in the assay with COLO 205 colon and in the assay on A498 renal was above 100 µM throughout. Besides, the TGI in the assay on SW-620 colon, with MCF7 breast, in the assay with A549 NSCLC and in the assay with BT-549 breast was above 100 µM throughout.

With `O=c1onc2c3ccccc3ncn12`, the TGI with MDA-MB-435, in the assay with K-562 leukemia, in the assay with OVCAR-3 ovarian, with U251 CNS, in the assay with COLO 205 colon and in the assay on A498 renal was above 100 µM in each case. Also, the TGI with SW-620 colon, with MCF7 breast, with A549 NSCLC and in the assay on BT-549 breast was above 100 µM throughout.

On to `O=[As](O)(O)c1ccc(N=Nc2ccc(O)cc2)cc1`, for which the TGI in the assay with MDA-MB-435, in the assay with K-562 leukemia, in the assay with OVCAR-3 ovarian, in the assay on U251 CNS, in the assay with COLO 205 colon and in the assay on A498 renal was above 100 µM in each case. Further, the TGI in the assay on SW-620 colon, in the assay on MCF7 breast, in the assay on A549 NSCLC and in the assay on BT-549 breast was above 100 µM throughout.

With `C#CCOCC12C=CC(O1)C1C(=O)OCC12` (stereo not given), the TGI with MDA-MB-435, in the assay on K-562 leukemia, in the assay with OVCAR-3 ovarian, in the assay on U251 CNS, in the assay on COLO 205 colon and in the assay with A498 renal was above 100 µM throughout. In addition, the TGI in the assay on SW-620 colon, in the assay with MCF7 breast, in the assay with A549 NSCLC and in the assay on BT-549 breast was above 100 µM throughout.

`Cc1cc(O)c(C(C)C)cc1C1(c2cc(C(C)C)c(O)cc2C)OC(=O)c2ccccc21`: the TGI in the assay with MDA-MB-435 was 3.01 µM; in the assay with K-562 leukemia it was 3.25 µM; in the assay with OVCAR-3 ovarian it was 4.85 µM; in the assay on U251 CNS, 3.9 µM; with COLO 205 colon, 4.96 µM; in the assay on A498 renal, 7.1 µM. Besides, the TGI with SW-620 colon was found to be 4.57 µM; in the assay with MCF7 breast it was 3.6 µM; in the assay on A549 NSCLC, 12.8 µM; in the assay on BT-549 breast, 5.53 µM.

As for `COC(=O)C1=C(OC(=O)c2ccccc2)C(C(=O)OC)[C@]2(O)[C@@H](C(=O)OC)[C@H]1C[C@@H](c1ccccc1)[C@@H]2C(=O)OC` (stereo not given in full), the TGI in the assay with MDA-MB-435 was found to be 10.8 µM; in the assay on K-562 leukemia, 18 µM; in the assay with OVCAR-3 ovarian, 57.4 µM; with U251 CNS, 20.8 µM; with COLO 205 colon, 21.8 µM; in the assay on A498 renal, 64.1 µM. The TGI in the assay with SW-620 colon amounted to 40.1 µM; in the assay on MCF7 breast, 15.7 µM; in the assay with A549 NSCLC it was 34.5 µM; in the assay with BT-549 breast, 75.6 µM.

Take `CCC(c1c[nH]c2ccc(Br)cc12)c1c[nH]c2ccc(Br)cc12`: the TGI is 11 µM with MDA-MB-435; 6.57 µM in the assay with K-562 leukemia; 14.2 µM in the assay with OVCAR-3 ovarian; 13.3 µM in the assay with U251 CNS; 6.09 µM in the assay with COLO 205 colon; 13.3 µM in the assay on A498 renal. In addition, the TGI with SW-620 colon is 19.1 µM; with MCF7 breast it was 15.5 µM; in the assay with A549 NSCLC, 15 µM; in the assay with BT-549 breast, 23.3 µM.

`CCOC(=O)[C@H](Cc1ccc(O)cc1)N=C1[C@H]2CCC[C@]1(O)[C@@](C)([N+](=O)[O-])C2`: the TGI with MDA-MB-435, with K-562 leukemia, in the assay on OVCAR-3 ovarian, in the assay with U251 CNS, with COLO 205 colon and with A498 renal was above 100 µM in each case. The TGI with SW-620 colon, in the assay with MCF7 breast, in the assay on A549 NSCLC and in the assay on BT-549 breast was above 100 µM throughout.

`CC1OC(O[C@H]2/C=C/C=C/C=C/C=C/C=C/C=C/C=C/[C@H](C)[C@@H](O)[C@@H](C)[C@H](C)OC(=O)CC(O)CC(O)CCC(O)C(O)CC(O)C[C@]3(O)C[C@H](O)C(C(=O)O)C(C2)O3)C(O)[C@H](N)C1O` (stereo not given in full): the GI50 with MDA-MB-435 was 2.01 µM; with K-562 leukemia, 30.1 µM; in the assay with OVCAR-3 ovarian, 2.39 µM; in the assay with U251 CNS it was 1.88 µM; in the assay on COLO 205 colon, 4.19 µM; with A498 renal, 12 µM. The GI50 in the assay with SW-620 colon is 2.58 µM; in the assay on MCF7 breast it was 5.02 µM; in the assay on A549 NSCLC, 1.67 µM; in the assay with BT-549 breast it was 13.9 µM. Besides, the TGI in the assay with MDA-MB-435 is 3.69 µM; with K-562 leukemia it was above 100 µM; in the assay with OVCAR-3 ovarian it was 5.35 µM; in the assay on U251 CNS, 3.79 µM; with COLO 205 colon, 17.2 µM; in the assay on A498 renal, 25.9 µM. The TGI in the assay with SW-620 colon worked out at 7.73 µM; with MCF7 breast, 19.7 µM; in the assay with A549 NSCLC it was 3.11 µM; with BT-549 breast, 30.4 µM.

For the compound `OC(c1ccc(-c2ccccc2)cc1)C(F)(F)c1nc2ccccc2o1` (stereo not given), the TGI is above 100 µM with MDA-MB-435; above 61.3 µM in the assay with K-562 leukemia; above 100 µM with OVCAR-3 ovarian; above 100 µM in the assay on U251 CNS; above 100 µM in the assay with COLO 205 colon; above 41.2 µM with A498 renal. Besides, the TGI in the assay with SW-620 colon, in the assay with MCF7 breast, in the assay with A549 NSCLC and in the assay on BT-549 breast was above 100 µM each time.

Regarding `O=C(O)CNC(=O)c1c2ccccc2nc2ccccc12`, the TGI with MDA-MB-435, in the assay with K-562 leukemia, in the assay with OVCAR-3 ovarian, in the assay with U251 CNS, with COLO 205 colon and with A498 renal was above 100 µM throughout. The TGI in the assay on SW-620 colon, in the assay with MCF7 breast, in the assay with A549 NSCLC and in the assay on BT-549 breast was above 100 µM each time.

Turning to `CSCCC(NC(=O)Cc1ccc(C(=O)c2ccccc2)cc1)C(=O)O` (stereo not given), the TGI in the assay on MDA-MB-435, with K-562 leukemia, with OVCAR-3 ovarian, in the assay on U251 CNS, in the assay on COLO 205 colon and in the assay on A498 renal was above 100 µM in each case. Besides, the TGI with SW-620 colon, with MCF7 breast, in the assay with A549 NSCLC and with BT-549 breast was above 100 µM each time.

As to `C[C@H]1C=C2[C@@H]3CC(C)(C(=O)O)CC[C@]3(C)CC[C@]2(C)[C@]2(C)CC[C@H]3C(C)(C)[C@@H](OC(=O)c4cccc5c(=O)c6ccccc6[nH]c45)CC[C@]3(C)[C@@H]12` (stereo not given in full), the TGI in the assay with MDA-MB-435, with K-562 leukemia, in the assay on OVCAR-3 ovarian, in the assay with U251 CNS, in the assay with COLO 205 colon and in the assay with A498 renal was above 100 µM throughout. In addition, the TGI in the assay on SW-620 colon, in the assay with MCF7 breast, in the assay on A549 NSCLC and with BT-549 breast was above 100 µM in each case.

Take `CN(C)CCCN1c2ccccc2CCc2ccc([N+](=O)[O-])cc21`: the TGI with MDA-MB-435 is 36 µM; with K-562 leukemia, above 100 µM; in the assay on OVCAR-3 ovarian, above 100 µM; with U251 CNS, above 100 µM; with COLO 205 colon it was 32 µM; in the assay on A498 renal it was 40.3 µM. Besides, the TGI in the assay on SW-620 colon is above 100 µM; with MCF7 breast it was 34.1 µM; with A549 NSCLC it was above 100 µM; in the assay with BT-549 breast, 73.7 µM.

On to `CC(=O)OCC1OC(n2c(=O)[nH]c(=O)c3sccc32)C(Br)C1OC(C)=O` (stereo not given), for which the TGI in the assay on MDA-MB-435, with K-562 leukemia, with OVCAR-3 ovarian, with U251 CNS, with COLO 205 colon and in the assay with A498 renal was above 100 µM in each case. For the same compound, the TGI with SW-620 colon, with MCF7 breast, in the assay on A549 NSCLC and in the assay on BT-549 breast was above 100 µM each time.

As for `N#C/C(=C\c1c[nH]c2ccccc12)C(=O)c1ccc(O)c(O)c1`, the TGI in the assay with MDA-MB-435 is above 100 µM; with K-562 leukemia, above 67 µM; with OVCAR-3 ovarian it was 17.2 µM; in the assay on U251 CNS, above 100 µM; in the assay with COLO 205 colon, above 67.7 µM; in the assay on A498 renal, above 100 µM. Also, the TGI in the assay on SW-620 colon was above 100 µM; in the assay on MCF7 breast it was above 100 µM; in the assay on A549 NSCLC it was 98.7 µM; in the assay with BT-549 breast, 65.1 µM.

(Values after PubChem BioAssay (NCI).)
